Laboratory results published in PubChem BioAssay (NCI).
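The compound was tested at five concentrations on cells cultured in 96-well plates, with a 48-hour exposure period. GI50 is the concentration that inhibits growth by half. Definition used: TGI = concentration required for complete inhibition of growth.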

Experiments:
Experiment in all cases: DTP human tumour cell line panel, 48 h
SNB-75 CNS = tested on: SNB-75 CNS
TK-10 renal = tested on: TK-10 renal
SR leukemia = tested on: SR leukemia
MDA-MB-231 breast = tested on: MDA-MB-231 breast
RXF 393 renal = tested on: RXF 393 renal
U251 CNS = tested on: U251 CNS
CAKI-1 renal = tested on: CAKI-1 renal
HS 578T breast = tested on: HS 578T breast
OVCAR-3 ovarian = tested on: OVCAR-3 ovarian
LOX IMVI melanoma = tested on: LOX IMVI melanoma
UACC-62 melanoma = tested on: UACC-62 melanoma
HT29 colon = tested on: HT29 colon
PC-3 prostate = tested on: PC-3 prostate
RPMI-8226 leukemia = tested on: RPMI-8226 leukemia
UACC-257 melanoma = tested on: UACC-257 melanoma
MDA-MB-435 = tested on: MDA-MB-435
HCT-116 colon = tested on: HCT-116 colon
SN12C renal = tested on: SN12C renal
ACHN renal = tested on: ACHN renal
SF-268 CNS = tested on: SF-268 CNS
M14 melanoma = tested on: M14 melanoma
KM12 colon = tested on: KM12 colon
HOP-92 NSCLC = tested on: HOP-92 NSCLC
NCI/ADR-RES ovarian = tested on: NCI/ADR-RES ovarian
OVCAR-8 ovarian = tested on: OVCAR-8 ovarian
NCI-H460 lung = tested on: NCI-H460 lung
CCRF-CEM leukemia = tested on: CCRF-CEM leukemia
HOP-62 NSCLC = tested on: HOP-62 NSCLC
SK-MEL-2 melanoma = tested on: SK-MEL-2 melanoma
HCC-2998 colon = tested on: HCC-2998 colon
T-47D breast = tested on: T-47D breast
SK-MEL-5 melanoma = tested on: SK-MEL-5 melanoma
SK-MEL-28 melanoma = tested on: SK-MEL-28 melanoma
786-0 renal = tested on: 786-0 renal
MALME-3M melanoma = tested on: MALME-3M melanoma
SW-620 colon = tested on: SW-620 colon
MOLT-4 leukemia = tested on: MOLT-4 leukemia
OVCAR-4 ovarian = tested on: OVCAR-4 ovarian
SF-295 CNS = tested on: SF-295 CNS
SK-OV-3 ovarian = tested on: SK-OV-3 ovarian
SF-539 CNS = tested on: SF-539 CNS
K-562 leukemia = tested on: K-562 leukemia
DU-145 prostate = tested on: DU-145 prostate
COLO 205 colon = tested on: COLO 205 colon
NCI-H23 lung = tested on: NCI-H23 lung
HCT-15 colon = tested on: HCT-15 colon
OVCAR-5 ovarian = tested on: OVCAR-5 ovarian
HL-60(TB) leukemia = tested on: HL-60(TB) leukemia
EKVX NSCLC = tested on: EKVX NSCLC
A498 renal = tested on: A498 renal
SNB-19 CNS = tested on: SNB-19 CNS
MCF7 breast = tested on: MCF7 breast
NCI-H226 lung = tested on: NCI-H226 lung
BT-549 breast = tested on: BT-549 breast
A549 NSCLC = tested on: A549 NSCLC

CCC(=O)c1c(C(F)(F)F)n([O-])c2cc(N3CCNCC3)c(F)cc2[n+]1=O
GI50 (SNB-75 CNS): 1.77 µM
TGI (SNB-75 CNS): 12.5 µM
GI50 (TK-10 renal): 2.93 µM
TGI (TK-10 renal): 17 µM
GI50 (SR leukemia): 1.53 µM
TGI (SR leukemia): 21.9 µM
GI50 (MDA-MB-231 breast): 4.17 µM
TGI (MDA-MB-231 breast): 17.1 µM
GI50 (RXF 393 renal): 1.62 µM
TGI (RXF 393 renal): 15.1 µM
GI50 (U251 CNS): 5.04 µM
TGI (U251 CNS): 19.9 µM
GI50 (CAKI-1 renal): 3.27 µM
TGI (CAKI-1 renal): 17.9 µM
GI50 (HS 578T breast): 2.74 µM
TGI (HS 578T breast): 21.3 µM
GI50 (OVCAR-3 ovarian): 1.66 µM
TGI (OVCAR-3 ovarian): 8.67 µM
GI50 (LOX IMVI melanoma): 3.41 µM
TGI (LOX IMVI melanoma): 19.4 µM
GI50 (UACC-62 melanoma): 2.27 µM
TGI (UACC-62 melanoma): 11.9 µM
GI50 (HT29 colon): 2.1 µM
TGI (HT29 colon): 18.5 µM
GI50 (PC-3 prostate): 2.33 µM
TGI (PC-3 prostate): 15.8 µM
GI50 (RPMI-8226 leukemia): 2.17 µM
TGI (RPMI-8226 leukemia): 12.2 µM
GI50 (UACC-257 melanoma): 3.22 µM
TGI (UACC-257 melanoma): 13 µM
GI50 (MDA-MB-435): 4.95 µM
TGI (MDA-MB-435): 17.3 µM
GI50 (HCT-116 colon): 1.71 µM
TGI (HCT-116 colon): 13.1 µM
GI50 (SN12C renal): 2.73 µM
TGI (SN12C renal): 14.6 µM
GI50 (ACHN renal): 1.55 µM
TGI (ACHN renal): 13.7 µM
GI50 (SF-268 CNS): 4.76 µM
TGI (SF-268 CNS): 21.1 µM
GI50 (M14 melanoma): 3.28 µM
TGI (M14 melanoma): 14.2 µM
GI50 (KM12 colon): 1.41 µM
TGI (KM12 colon): 15.4 µM
GI50 (HOP-92 NSCLC): 2.69 µM
TGI (HOP-92 NSCLC): 17.5 µM
GI50 (NCI/ADR-RES ovarian): 3.95 µM
TGI (NCI/ADR-RES ovarian): 24.3 µM
GI50 (OVCAR-8 ovarian): 2.38 µM
TGI (OVCAR-8 ovarian): 11.7 µM
GI50 (NCI-H460 lung): 1.48 µM
TGI (NCI-H460 lung): 11.5 µM
GI50 (CCRF-CEM leukemia): 2.05 µM
TGI (CCRF-CEM leukemia): 22.9 µM
GI50 (HOP-62 NSCLC): 10.2 µM
TGI (HOP-62 NSCLC): 22.6 µM
GI50 (SK-MEL-2 melanoma): 2.7 µM
TGI (SK-MEL-2 melanoma): 11.7 µM
GI50 (HCC-2998 colon): 1.4 µM
TGI (HCC-2998 colon): 14.3 µM
GI50 (T-47D breast): 2.81 µM
TGI (T-47D breast): 19.1 µM
GI50 (SK-MEL-5 melanoma): 1.26 µM
TGI (SK-MEL-5 melanoma): 3.55 µM
GI50 (SK-MEL-28 melanoma): 7.93 µM
TGI (SK-MEL-28 melanoma): 21.9 µM
GI50 (786-0 renal): 3.86 µM
TGI (786-0 renal): 17.6 µM
GI50 (MALME-3M melanoma): 0.324 µM
TGI (MALME-3M melanoma): 8.16 µM
GI50 (SW-620 colon): 2.68 µM
TGI (SW-620 colon): 17.9 µM
GI50 (MOLT-4 leukemia): 2.03 µM
TGI (MOLT-4 leukemia): 34.5 µM
GI50 (OVCAR-4 ovarian): 1.89 µM
TGI (OVCAR-4 ovarian): 25 µM
GI50 (SF-295 CNS): 4.2 µM
TGI (SF-295 CNS): 18.5 µM
GI50 (SK-OV-3 ovarian): 1.97 µM
TGI (SK-OV-3 ovarian): 10.4 µM
GI50 (SF-539 CNS): 10.3 µM
TGI (SF-539 CNS): 22.4 µM
GI50 (K-562 leukemia): 1.65 µM
TGI (K-562 leukemia): 12.8 µM
GI50 (DU-145 prostate): 1.61 µM
TGI (DU-145 prostate): 4.36 µM
GI50 (COLO 205 colon): 0.454 µM
TGI (COLO 205 colon): 10.8 µM
GI50 (NCI-H23 lung): 3.42 µM
TGI (NCI-H23 lung): 16.2 µM
GI50 (HCT-15 colon): 1.76 µM
TGI (HCT-15 colon): 13.5 µM
GI50 (OVCAR-5 ovarian): 7.78 µM
TGI (OVCAR-5 ovarian): 27.3 µM
GI50 (HL-60(TB) leukemia): 1.18 µM
TGI (HL-60(TB) leukemia): 6.68 µM
GI50 (EKVX NSCLC): 2.82 µM
TGI (EKVX NSCLC): 13.7 µM
GI50 (A498 renal): 1.67 µM
TGI (A498 renal): 11.1 µM
GI50 (SNB-19 CNS): 7.31 µM
TGI (SNB-19 CNS): 20.6 µM
GI50 (MCF7 breast): 3.48 µM
TGI (MCF7 breast): 19.8 µM
GI50 (NCI-H226 lung): 5.37 µM
TGI (NCI-H226 lung): 25.2 µM
GI50 (BT-549 breast): 2.84 µM
TGI (BT-549 breast): 12.5 µM
GI50 (A549 NSCLC): 2.58 µM
TGI (A549 NSCLC): 13.8 µM
